In data set [1] the test system is KB (human nasopharyngeal carcinoma). Put plainly: Cytotoxicity against KB cell line. The class given is cell-based.
In data set [2] the test system is LoVo (human colon carcinoma). Put plainly: Cytotoxicity against LoVo cell line. The class given is cell-based.
Data set [3] concerns SKOV3 (human ovarian carcinoma). Kind of data set: Cytotoxicity against SKOV3 cell line (Table 2). The class given is cell-based.
Data set [4] deals with murine leukemia (L1210 or P388), murine solid tumor, human solid tumor and low malignancy fibroblast (LML) cells.
The test system of data set [5] is colon adenocarcinoma #38 (Colon 38, C38).
Data set [6] relates to H125 Human Adenosq-lung. The conditions noted are these: Exp 1823; SC H125 Human Adenosq-lung; 8 IV inj.; 14.4 mg/kg total dose.
Experimental: (§1) Gross log kill is defmed as T-C/3.2 Td where T is the median time in days for the tumors of the treated group to reach 750 mg, C is the median time in days for the tumors of the control group to reach 750 mg, and Td is the tumor volume doubling time. […] An activity rating of +++ to ++++, which is indicative of clinical activity, is needed to effect partial or complete regression of 100-300 mg size masses of most transplanted solid tumors of mice.
In data set [7] the test system is murine and human tumors implanted in mice. The conditions noted are these: for cause of lethal toxicity observed during testing: mice; for tumor burden T/C (mean tumor burden in treated animals/mean tumor burden untreated animals): text summary over the tumors named in the sentence.
Experimental: as §1
Data set [8] deals with strains of Cryptococcus. Particulars: found by researchers at Merck; cited from earlier work.
For data set [9], the system named is MX-1 Human Breast. Kind of data set: In vivo activity, SC MX-1 tumor. Particulars: Exp 1806; SC MX-1 Human Breast; 8 IV inj.; 12 mg/kg total dose.
Experimental: as §1
For data set [10], the system named is M17/0 (Adr. Sens.). Put plainly: In vivo activity, SC M17/0 tumor. Particulars: Exp 1833; SC M17/0 (Adr. Sens.); 5 IV inj.; 5.4 mg/kg total dose.
Experimental: as §1
For data set [11], the system named is LNCaP Human Prostate. Kind of data set: In vivo activity, SC LNCaP tumor. Particulars: Exp 1841, 6 IV inj., 6.5 mg/kg total dose.
Experimental: Gross log kill is defmed as T-C/3.2 Td where T is the median time in days for the tumors of the treated group to reach 750 mg, C is the median time in days for the tumors of the control group to reach 750 mg, and Td is the tumor volume doubling time.
In data set [12] the test system is Human Sm Cell L. DMS273. Kind of data set: In vivo activity, SC DMS273 tumor. The conditions noted are these: Exp 1596; SC Human Sm Cell L. DMS273 SCID; 6 IV inj.; 7.3 mg/kg total dose.
Experimental: as §1
In data set [13] the test system is colon adenocarcinoma #51 (Colon 51). Put plainly: In vivo activity, SC Colon 51 tumor.
Data set [14] has as its system Mam 16/C (taxol-sensitive mammary #16/C). Kind of data set: In vivo activity, SC Mam 16/C tumor.
The subject of data set [15] is Mam 16/Taxol (taxol-resistant mammary #16/C/RP). Put plainly: In vivo activity, SC Mam 16/Taxol tumor. Particulars: Exp 1733, 5 IV inj., 16.5 mg/kg total dose.
Experimental: as §1
The test system of data set [16] is pancreatic ductal adenocarcinoma #03 (Panc 03, P03). Particulars: Exp 1825; SC P03; 11 IV inj.; 106 mg/kg TD.
Data set [17] deals with A-10 rat aortic smooth muscle cells. The class given is cell-based. The procedure: A-10 cells were grown to near-confluency on glass coverslips in BME/10% FBS. Compounds in PBS were added to the indicated final concentrations and cells were incubated for an additional 24 hours. For the staining of microtubules and intermediate filaments, the cells were fixed with cold methanol and incubated with PBS containing 10% calf serum to block nonspecific binding sites. Cells were then incubated at 37° C. for 60 min with either monoclonal anti-β-tubulin or with monoclonal anti-vimentin at dilutions recommended by the manufacturer. Bound primary antibodies were subsequently visualized by a 45-minute incubation with fluorescein-conjugated rabbit antimouse IgG. The coverslips were mounted on microscope slides and the fluorescence patterns were examined and photographed using a Zeiss Photomicroscope Ill equipped with epifluorescence optics for fluorescein. […] PBS containing 100 nM TRITC-phalloidin was then added and the mixture was allowed to incubate for 45 min at 37° C. The cells were washed rapidly three times with PBS before the coverslips were mounted and immediately photographed as described above.
After 24 hours, microtubules and vimentin intermediate filaments were visualized by indirect immunofluorescence and microfilaments were stained using TRITC-phalloidin. The morphological effects of each drug were examined. […] Vimentin intermediate filaments were also evenly distributed throughout the cytoplasm, while bundles of microfilaments were concentrated along the major axis of the cell.

Data set [18] has as its system tumor (leukemia) and normal cell (CFUGM) lines. Kind of data set: Valeriote assay. The class given is cell-based. Particulars: 5 μg/disk.
Experimental: ^b N = nonselective towards tumor (leukemia) and normal cell (CFUGM)
LL = lymphocytic leukemia selective (ZL1210 - ZCFUM ≥ 25
ML = acute myelogenous leukemia (AML) selective (ZAML - ZCFUGM
The test system of data set [19] is Human ovarian carcinoma cells (SKOV3). Put plainly: SKOV3 cell proliferation (SRB staining, Example 10). Type of data set: cell-based. Particulars: SKOV3 treated 24 hours with IC50 dose, then drug-free medium. A general note: In SRB staining, fixed cells bind dye roughly in proportion to their protein.
The mark [20] stands for this setting: Exp 1560, SC Colon 38, 8 IV inj., 10.3 mg/kg total dose.
[21] abbreviates: Exp 1636, 7 IV inj., 28.1 mg/kg total dose.
Where [22] appears, read: Exp 1720, 5 IV inj., 13.2 mg/kg total dose.
Setting [23] is: Exp 1769, SC C38, 15 IV inj., 45 mg/kg TD.
Where [24] appears, read: Exp 1887B, SC C38, 6 IV inj., 30 mg/kg TD.
The mark [25] stands for this setting: Exp 1900, 9 IV inj., 67.5 mg/kg TD.
Setting [26] is: Exp 1885, 7 IV inj., 21.3 mg/kg TD.
Where [27] appears, read: 24 hours, 2 μM cytochalasin B, 100 nM vinblastine or 10 nM cryptophycin compounds.

Each structure is given as a SMILES string. Entries after “also recorded” stand apart in the source; their conditions may differ. Where two headings read alike, the source gives them in different places.

Results on 6 compounds are retold here after patent US5952298A, “Cryptophycins” (priority 1995, dated 1999).

The T/C is the ratio of treated to control.

For the compound `COc1ccc(C[C@H]2NC(=O)/C=C/C[C@@H]([C@H](C)[C@H]3O[C@@H]3c3ccccc3)OC(=O)[C@H](CC(C)C)OC(=O)[C@H](C)CNC2=O)cc1Cl` [Cryptophycin 1], the “KB IC50” value came out at 0.005 ng/mL in data set [1] (Table 1) and 0.0025 ng/mL in data set [1] (Table 2). For the same compound, the entries for the “LoVo IC50” value in data set [2] (Table 1) and in [2] (Table 2) were 0.003 ng/mL and 0.001 ng/mL, respectively. In data set [3], the “SKOV3 IC50” value was found to be 0.026 ng/mL. The “Differential in Zone Units, Corbett Assay” value (shortened to “Differential … Corbett Assay”) in data set [4] (12.5 μg/disk) is given as over 400 zone units. Also, the “Type of Cytotoxicity, Corbett Assay” value in [4] (12.5 μg/disk) is “E/T”. The “% Body Wt. Loss at Nadir” value in [5] (setting [20]) is given as “Gain”; in data set [6] it was -15%; in [9] it was -3%; in [10], -10%; in data set [11], -6%; in data set [12], 0%. Moreover, the “% Body Wt. Loss at Nadir” value was -11% in data set [13] (setting [21]), -1% in [14] (setting [22]) and 0% in data set [15]. Besides, the Cures in [5] (setting [20]), in data set [6], in data set [9], in [10], in data set [11] and in data set [12] was 0/5 each time. Moreover, the Cures was 0/5 in data set [13] (setting [21]), 0/5 in data set [14] (setting [22]) and 0/4 in [15]. Besides, the “Log Kill” value in [5] (setting [20]) was 1.5; in [6], 1.1; in [9], 2.0; in [10] it was under 1; in data set [11] it was under 1; in data set [12], under 1. In addition, the entries for the “Log Kill” value in [13] (setting [21]), in data set [14] (setting [22]) and in [15] were 1.3, 1.4 and 1.8, respectively. The T/C is 6% in data set [5] (setting [20]); 9% in data set [6]; 3% in [9]; 23% in data set [10]; 26% in [11]; 27% in data set [12]. Further, the T/C was 7% in data set [13] (setting [21]), 5% in data set [14] (setting [22]) and 2% in data set [15]. For the same compound, the “dead (animals)” value in [6] is reported as 1/5. In data set [7], the “in vivo activity (in words)” value is “active against a broad spectrum of murine and human tumors implanted in mice”. For the same compound, the “cause of lethal toxicity observed during testing” value in data set [7] was “leucopenia”. In addition, in [7], the “tumor burden T/C (mean tumor burden in treated animals/mean tumor burden untreated animals)” value is on record as “less than 10%”. Further, in data set [8], the antifungal activity entry is given as “very active against strains of Cryptococcus”.

Take `COc1ccc(C[C@H]2NC(=O)/C=C/C[C@@H]([C@H](C)[C@@H](O)[C@@H](Cl)c3ccccc3)OC(=O)[C@H](CC(C)C)OC(=O)[C@H](C)CNC2=O)cc1Cl` [Cryptophycin 8]: the “KB IC50” value in data set [1] (Table 1) is 0.0002 ng/mL. Further, in data set [1] (Table 2), the “KB IC50” value worked out at 0.01 ng/mL. In addition, the “LoVo IC50” value in data set [2] (Table 1) was found to be 0.01 ng/mL. In addition, the “LoVo IC50” value in data set [2] (Table 2) was 0.0022 ng/mL. For the same compound, in [3], the “SKOV3 IC50” value was determined as 0.15 ng/mL. Besides, in data set [4] (30 μg/disk), the “Differential … Corbett Assay” value is recorded as over 500 zone units and the “Type of Cytotoxicity, Corbett Assay” value is reported as “E/T”. Moreover, in data set [5] (setting [23]), the “% Body Wt. Loss at Nadir” value is given as -2%, the Cures was 0/5 and the T/C is recorded as over 100%. Moreover, in [5] (setting [24]), the “% Body Wt. Loss at Nadir” value is -2%, the Cures was 1/5 and the T/C came to 0%. For the same compound, in data set [5] (mouse, in vivo, 30 mg/kg), the “Log Kill” value is listed as 2.8. The “Log Kill” value in data set [5] (mouse, in vivo, 45 mg/kg) is on record as “None”. Further, in data set [16], the “% Body Wt. Loss at Nadir” value is on record as -6%, the Cures was 0/5, the “Log Kill” value worked out at 4.6 and the T/C is on record as 4%. Besides, in data set [7], the “cures (in words)” value was “some cures”, the “gross log kill activity rating” value is on record as “+++ to ++++”, the “in vivo activity (in words)” value is listed as “active against a broad spectrum of tumors implanted in mice” and the “cause of lethal toxicity observed during testing” value is given as “leucopenia”. Moreover, the “tumor burden T/C (mean tumor burden in treated animals/mean tumor burden untreated animals)” value in [7] was under 10%. In data set [13] (setting [25]), the “% Body Wt. Loss at Nadir” value was -1%, the Cures is given as 0/5, the “Log Kill” value stood at 1.8 and the T/C amounted to 7%. In data set [14] (setting [26]), the “% Body Wt. Loss at Nadir” value is reported as -4.5%, the Cures is listed as 0/5, the “Log Kill” value is 2.5 and the T/C was determined as 6%.

On to `C=C1[C@@H](C)[C@H]2[C@H](Cc3ccccc3)NC(=O)[C@]23OC(=O)/C=C/[C@H](O)CCC[C@@H](C)C/C=C/[C@H]3[C@@H]1O` [Cytochalasin B, cytochalasin B], for which the effect on microfilaments result in data set [17] (2 μM cytochalasin B, 24 hours) was “complete depolymerization of microfilaments”. For the same compound, the effect on microtubules result in data set [17] (setting [27]) was “did not affect the distribution of either microtubules or intermediate filaments”.

As to `COc1cc([C@@H]2c3cc4c(cc3[C@@H](O[C@@H]3O[C@@H]5CO[C@@H](C)O[C@H]5[C@H](O)[C@H]3O)[C@H]3COC(=O)[C@H]23)OCO4)cc(OC)c1O` [VP-16, etoposide, reference compound], the “Differential in Zone Units, Valeriote Assay” value in data set [18] is 260 zone units. Further, the “Differential … Corbett Assay” value in data set [4] (5 μg/disk) is listed as 350 zone units.

On to `CC(=O)O[C@H]1C(=O)[C@@]2(C)[C@H]([C@H](OC(=O)c3ccccc3)[C@]3(O)C[C@H](OC(=O)[C@H](O)[C@@H](NC(=O)c4ccccc4)c4ccccc4)C(C)=C1C3(C)C)[C@]1(OC(C)=O)CO[C@@H]1C[C@@H]2O` [taxol, reference compound], for which the “microtubule organization in taxol-treated cells” value in data set [17] (10 μM taxol) is given as “extensively bundled”. Besides, in data set [4] (0.2 μg/disk), the “Differential … Corbett Assay” value was at least 400 zone units and the “Type of Cytotoxicity, Corbett Assay” value is reported as “M/H/T”.

With `CC[C@]1(O)C[C@@H]2CN(CCc3c([nH]c4ccccc34)[C@@](C(=O)OC)(c3cc4c(cc3OC)N(C)[C@H]3[C@@](O)(C(=O)OC)[C@H](OC(C)=O)[C@]5(CC)C=CCN6CC[C@]43[C@@H]65)C2)C1` [vinblastine], in [19], the “increase in cell number in the 24 hours following removal of the drug” value is listed as “approximately 3 fold”. For the same compound, the “microtubule depolymerization after taxol pretreatment” value in data set [17] (3 hours 10 μM taxol, then 100 nM vinblastine or 10 nM cryptophycin compound, 24 hours) is listed as “pretreatment with taxol prevented microtubule depolymerization”. For the same compound, the “effect on vimentin intermediate filaments” value in data set [17] (24 hours, 100 nM vinblastine or 10 nM cryptophycin compounds) is reported as “vimentin intermediate filaments collapsed”. In addition, in data set [17] (setting [27]), the effect on microtubules entry is “marked depletion of microtubules; also recorded: complete depolymerization of microtubules”. In addition, in data set [17] (24 hr treatment (100 nM vinblastine or 10 nM cryptophycins), then 1 hour or 24 hours drug-free medium), the “reversibility of microtubule depolymerization after removal of the drug” value is on record as “complete morphological recovery by 24 hour”.
